From patent publication US5917057A, “N-hydroxy-dibenz[b,e]oxepinalkylamines, n-hydroxy-dibenz[b,e]oxepinalkanoic acid amides and related heterocyclic analogues” (Hoechst Marion Roussel, Inc., priority 1998, dated 1999)

Legend:
[1] = system: cyclooxygenase metabolite (PGE2) formation in cultured 3T3 mouse fibroblasts (CCL92-3T3); assay: In Vitro Cyclooxygenase Assay (PGE2); assay type: cell-based; conditions: Fibroblast, 24 hours; for IC50: radioimmunoassay
Experimental: The ability of a compound to reduce cyclooxygenase metabolite formation in cultured 3T3 mouse fibroblasts (CCL92-3T3) was measured by radioimmunoassay of prostaglandin E2 (PGE2) levels in the culture media. The 3T3 cells were maintained in complete Dulbecco's Modified Eagles Medium (DMEM) containing 10% calf serum, 2 mM L-glutamine and 5000 units/ml of penicillin/streptomycin. After seeding in 24 mm tissue culture dishes at […], the cells were cultured for 24 hours. Media was removed by aspiration and replaced with DMEM (1 ml/well, 4 wells/treatment) containing test compound, which was previously dissolved in ethanol, or vehicle at various concentrations. The cells were then incubated for 24 hours and PGE2 levels in the media were quantitated by radioimmunoassay according to established procedure (Lingren et al., FEBS Lett., 48, 22). The mean value from duplicate determinations was utilized to assess the % change from control values for each treatment group.

[2] = system: mouse ear edema induced by topical application of arachidonic acid; assay: Arachidonic Acid-Induced Mouse Ear Edema (AAEE); assay type: in vivo, Female Swiss Webster mice; conditions: 1 mg/ear topical, 30 min before arachidonic acid 4 mg/ear; relative to control
Experimental: Arachidonic Acid-Induced Mouse Ear Edema (AAEE)
The purpose of this assay was to determine the ability of a topically applied compound to prevent mouse ear edema induced by topical application of arachidonic acid. Female Swiss Webster mice topically received vehicle or test compound (1.0 mg/ear) on both ears (10 μl on outer and inner ears). After 30 minutes, arachidonic acid is applied to the right ear of each mouse of each group in the amount of 4 mg/ear. Vehicle is applied to the left ear of each mouse of each group at a volume of 20 μl/ear. After an additional hour, the mice are sacrificed and a 4 mm plug is taken from each ear and weighed. The difference between the right and left ear plugs was determined for each animal. The antiinflammatory activity of the test compound is expressed as the mean percent change in the ear plug weight of the treated animals relative to the mean percent change in weights of control animals' ear. (Standard: Indomethacin--90% at 1 mg/ear). Young, J. M. et al., Invest. Dermatol., 80, (1983), pp. 48-52.

[3] = system: naja naja (snake venom) phospholipase A2 (PLA2)-induced paw edema; assay: Phospholipase A2-Induced Paw Edema (PIPE); assay type: in vivo, male Wistar rats; conditions: subplantar; for PIPE 0.1M: 0.1 M test compound injected with PLA2 (3 units/100 μl/paw), rat left hindpaw, two hours; for PIPE ED50: standards, rat hindpaw
Experimental: Phospholipase A2 -Induced Paw Edema (PIPE)
The ability of compounds to reverse naja naja (snake venom) phospholipase A2 (PLA2)-induced paw edema in male Wistar rats (100-125 gm) was measured. PLA2 (3 units/100 μl dH2 O/paw) alone or with 0.1 M of the test compound was injected in the subplantar region of the rat left hindpaw. Immediately following injection and at two hours post administration, the paw was immersed in a mercury bath, and paw displacement was measured on a recorder via a transducer. The value was then converted to mm Hg. […] Giessler, A. J. et al., "Agents and Actions", Vol. 10, "Trends in Inflammation Research" (1981), p. 195.

5-lipoxygenase = molecular target: T1, 5-lipoxygenase (Rattus norvegicus, UniProt P12527); assay: In Vitro 5-Lipoxygenase Assay (5-HETE); assay type: biochemical; conditions: RBL-1 cell-free supernatant, 10 μM arachidonic acid, 37° C.
T1 construct: cell-free 5-lipoxygenase enzyme obtained from rat basophilic leukemia (RBL-1) cells; endogenous in cells; host or cells: RBL-1 rat basophilic leukemia cells, cell-free supernatant of sonicated cells
T1 sequence (P12527 1-673): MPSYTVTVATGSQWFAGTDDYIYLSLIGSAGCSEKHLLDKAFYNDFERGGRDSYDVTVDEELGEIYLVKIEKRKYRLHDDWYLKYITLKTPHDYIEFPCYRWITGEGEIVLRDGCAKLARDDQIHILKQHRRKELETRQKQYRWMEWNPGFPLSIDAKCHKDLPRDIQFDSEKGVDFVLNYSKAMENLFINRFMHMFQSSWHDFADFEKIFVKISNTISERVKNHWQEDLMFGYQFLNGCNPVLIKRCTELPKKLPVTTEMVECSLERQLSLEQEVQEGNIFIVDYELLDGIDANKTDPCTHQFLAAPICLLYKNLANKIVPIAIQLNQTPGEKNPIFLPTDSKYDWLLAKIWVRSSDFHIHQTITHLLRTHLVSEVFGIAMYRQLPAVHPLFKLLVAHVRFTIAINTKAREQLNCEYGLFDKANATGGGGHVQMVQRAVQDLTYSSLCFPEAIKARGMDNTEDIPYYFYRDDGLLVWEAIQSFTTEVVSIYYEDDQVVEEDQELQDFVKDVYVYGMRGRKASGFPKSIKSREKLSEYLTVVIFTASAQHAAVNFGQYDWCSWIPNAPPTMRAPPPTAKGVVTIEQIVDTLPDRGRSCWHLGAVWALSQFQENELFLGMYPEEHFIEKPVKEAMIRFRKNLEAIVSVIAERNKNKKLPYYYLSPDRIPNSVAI
Experimental: The ability of a compound to reduce 5-HETE production by cell-free 5-lipoxygenase enzyme obtained from rat basophilic leukemia (RBL-1) cells was measured by a modified procedure of Cochran et al. [Biochem. Biophys. Res. Commun., 161, 1327 (1989)]. RBL-1 cell-free supernatants were prepared by a modification of the method of Jakschik et al., [Prostaglandins, 25, 767 (1983)]. Cells (1×10^9) were collected by centrifugation (22°) and washed at […] with 50 mM phosphate buffer at 5×10^7 cells/ml. Cells were lysed on ice for 45 seconds with a Teckmar sonic disrupter. The homogenate was centrifuged (4° C) for 25 minutes and the supernatant (5 μg protein/μl) was decanted and stored at -80° C. A 1% dimethylsulfoxide (DMSO) vehicle (DMSO in deionized water) was utilized at various concentrations of the test compound. Duplicate reactions were run in 35mM buffer in the presence of 5 μM ATP, 50 μM CaCl2 and 10 μM arachidonic acid at 37° C. The reaction was terminated with 10 μl 0.3 citrate buffer and diluted with BGGE buffer (0.01M phosphate, 0.1% bovine gamma globulin, pH 8.5) containing 114 μM BHT with ice bath cooling. 5-Hydroxyeicosatetraenoic acid (5-HETE) levels were quantitated by radioimmunoassay according to standard procedures.

[4] = system: ear edema induced by topical application of TPA (phorbol 12-myristate acetate); assay: TPA-Induced Ear Edema (TPAEE); assay type: in vivo, Female Swiss Webster mice; conditions: 10 μg/ear topical; TPA 10 μg/ear; about 5 hours; relative to control
Experimental: TPA-Induced Ear Edema (TPAEE)
The purpose of this assay was to determine the ability of a topically applied compound to prevent ear edema induced by topical application of TPA (phorbol 12-myristate acetate). Female Swiss Webster mice topically received TPA (10 μg/ear) on the right ear and vehicle on the left ear. The test compound (10 μg/ear) was applied to both ears. After about 5 hours, the animals are sacrificed and a 4 mm diameter plug is taken from each ear and weighed. The difference between the right and left ear plug weights for each animal was determined. The antiinflammatory activity of the test compound is expressed as the mean percent change in ear plug weight of the treated animals compared to the mean percent change in the plug weight of the control animals. (Standard: Indomethacin:--86% at 1 mg/ear). Young, J. M. et al., J. Invest. Dermatol., 80 (1983), pp. 48-52.

[5] = system: phenyl-para-quinone induced writhing; assay: phenyl-para-benzoquinone writhing assay in mice (analgesia); assay type: in vivo; conditions: at 20 mg/kg
Description: The compounds of the present invention are also useful as analgesic agents due to their ability to alleviate pain in mammals. […] Exptl. Biol. Med., 95, 729 (1957)].

SMILES | IC50 [1] [nM] | AAEE % Change [2] [%] | PIPE 0.1M [3] | IC50 (5-lipoxygenase) [nM] | TPAEE percent change [4] [%] | % Inhibition of Writhing [5] [%] | PIPE ED50 [3] [M] | inhibition at 1 µM ([1]; @1 μM, read-out: PGE2 % change) [%]
CN(O)CCc1ccc2c(c1)C(=O)c1ccccc1CO2 [2-(6,11-Dihydro-11-oxodibenz[b,e]oxepin-2-yl)-N-hydroxy-N-methyl-ethylamine] | 100 | -46 | -70 | 240 | -50 | – | – | –
CCN(O)CCc1ccc2c(c1)Cc1ccccc1CO2 [2-(6,11-Dihydrodibenz[b,e]oxepin-2-yl)-N-ethyl-N-hydroxyethylamine] | – | -50 | – | 280 | -84 | – | – | –
O=C1c2ccccc2COc2ccc(CCC(=O)N(O)C3CCCCC3)cc21 [3-(6,11-Dihydro-11-oxodibenz[b,e]oxepin-2-yl)-N-cyclohexyl-N-hydroxypropanamide] | – | – | – | – | – | 76 | – | –
CN(O)C(=O)CCc1ccc2c(c1)C(=O)c1ccccc1CO2 [3-(6,11-Dihydro-11-oxodibenz[b,e]oxepin-2-yl)-N-hydroxy-N-methylpropanamide] | 780 | -63 | -46 | 50 | -71 | – | – | –
CN(O)C(=O)CCc1ccc2c(c1)Cc1ccccc1CO2 [3-(6,11-Dihydro-dibenz[b,e]oxepin-2-yl)-N-hydroxy-N-methylpropanamide] | 1000 | -67 | – | 80 | – | – | – | –
C[C@]12CCC(=O)C=C1CC[C@@H]1[C@@H]2[C@@H](O)C[C@@]2(C)[C@H]1CC[C@]2(O)C(=O)CO [Hydrocortisone, reference compound] | – | – | – | – | – | – | 0.46 | –
CC(C)Cc1ccc(C(C)C(=O)O)cc1 (centres unmarked) [Ibuprofen, reference compound] | 22 | – | – | – | – | – | – | –
O=C1c2ccccc2COc2ccc(CC(=O)N(O)C3CCCCC3)cc21 [N-Cyclohexyl-2-(6,11-dihydro-11-oxodibenz[b,e]oxepin-2-yl)-N-hydroxyacetamide] | – | -29 | -85 | 500 | -52 | 68 | – | 17
CCN(CC)CCCC(C)Nc1c2ccc(Cl)cc2nc2ccc(OC)cc12 (centres unmarked) [Quinacrine, reference compound] | – | – | – | – | – | – | 0.1 | –
